This note sets out measurements from publication PMC5148754, “Response surface methodology-based optimization of production media and purification of α-galactosidase in solid-state fermentation by Fusarium moniliforme NCIM 1099” (3 Biotech, 2016).

By Km is commonly meant the concentration of substrate that gives half-maximal velocity.

The test system of assay [1] is T1, α-galactosidase.
T1 construct: gene EC 3.2.1.22; single band 57 kDa on SDS-PAGE; optimum pH 4.0
Description: initial rate of hydrolysis, Lineweaver-Burk. The assay is classed as biochemical, Fusarium verticillioides. The conditions noted are these: citrate phosphate buffer pH 5.0, 50 °C (standard assay); read-out: apparent Km.

The test system of assay [2] is T1, α-galactosidase. Description: initial rate of hydrolysis, p-nitrophenol release at […] nm, Lineweaver-Burk. Type of assay: biochemical, Fusarium verticillioides. Conditions: citrate phosphate buffer pH 5.0, 50 °C (standard assay); read-out: apparent Km.

Turning to `OC[C@H]1O[C@H](OC[C@H]2OC(O)[C@H](O)[C@@H](O)[C@@H]2O)[C@H](O)[C@@H](O)[C@H]1O` (stereo partly drawn) [melibiose], in the assay on α-galactosidase [1], the Km came to 1360 µM. As for `O=[N+]([O-])c1ccc(O[C@H]2O[C@H](CO)[C@H](O)[C@H](O)[C@H]2O)cc1` [p-nitrophenyl-α-D-galactopyranoside], the Km in the assay on α-galactosidase [2] amounted to 200 µM.

For the molecule `OC[C@H]1O[C@H](OC[C@H]2O[C@H](O[C@]3(CO)O[C@H](CO)[C@@H](O)[C@@H]3O)[C@H](O)[C@@H](O)[C@@H]2O)[C@H](O)[C@@H](O)[C@H]1O` [raffinose], the Km in the assay on α-galactosidase [1] stood at 3660 µM.
